The test system of assay [1] is COS-7, PC12, and SH-SY5Y cells. As to conditions: treatment with proteasome inhibitor; cited from earlier work.
In a further assay the test system is COS-7 cells. As to conditions: overexpression; cited from earlier work.
Assay [2] concerns mutant Huntingdon exon 1-expressing PC12 and SH-SY5Y cells. As to conditions: overexpression; cited from earlier work.
Assay [3] addresses T1, heat- and dithiothreitol-denatured mtMDH (Sus scrofa, UniProt P00346).
T1 construct: Boehringer-Mannheim); purchased Boehringer-Mannheim; host or cells: pig heart
T1 sequence (P00346 25-338): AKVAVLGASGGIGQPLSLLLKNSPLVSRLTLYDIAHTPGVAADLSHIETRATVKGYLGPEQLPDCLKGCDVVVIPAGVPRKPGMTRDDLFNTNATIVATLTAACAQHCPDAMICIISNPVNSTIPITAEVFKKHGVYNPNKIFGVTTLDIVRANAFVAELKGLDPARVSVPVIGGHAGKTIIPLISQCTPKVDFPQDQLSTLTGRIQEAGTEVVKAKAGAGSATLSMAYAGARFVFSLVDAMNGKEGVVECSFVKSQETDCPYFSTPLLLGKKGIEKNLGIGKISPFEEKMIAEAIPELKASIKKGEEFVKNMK
Description: In vitro refolding of denatured mtMDH. The class given is biochemical, pig. As to conditions: FIG. 7b. The method, then:
In vitro Refolding Experiments.
Refolding assays of pig heart mitochondrial malate dehydrogenase (mtMDH; Boehringer-Mannheim) and aggregation protection were carried out essentially as described (Peres Ben-Zvi, A. P., Chatellier, J., Fersht, A. R. & Goloubinoff, P. (1998) Proc. Natl. Acad. Sci. U.S.A. 95, 15275-15280). The concentrations of MC7 used were between 8-16 μM (reporter to protomer).

The target of a further assay is GroES (Escherichia coli, UniProt P0A6F9). As to conditions: ELISA, FIG. 5a. The method, then:
GroES Binding and Competition Assays by ELISA (Enzyme-Linked Immunosorbant Assay).
Proteins were coated onto plastic microtitre plates (Maxisorb, Nunc) overnight at 4° C. at a concentration of 10 μg/mL in carbonate buffer (50 mM NaHCO3, pH 9.6). Plates were blocked for 1 hour at 25° C. with 2% Marvel in PBS (phosphate buffered saline: 25 mM NaH2PO4, 125 mM NaCl, pH 7.0). GroES, at 10 μg/mL in 100 μL of 10 mM Tris-HCl, 200 mM KCl, pH 7.4, were bound at 25° C. for 1 hour. Bound GroES were detected with rabbit anti-GroES antibodies (Sigma) followed by anti-rabbit immunoglobulins horseradish peroxidase conjugated antibodies (Sigma).
A general note: In an ELISA, binding on a coated surface is turned into a signal by an enzyme label.

For the next assay, the system named is bacteriophage λ. Description: Growth of bacteriophage λ in transformed groEL strains. The class given is cell-based, bacteriophage λ (b2cI) in E. coli. As to conditions: SV1 (groE^+). The text has this: The E. Coli strains used in this study were: C41(DE3), a mutant of BL21(DE3) capable of expressing toxic genes (Miroux, B. & Walker, J. E. (1996) J. Mol. Biol. 260, 289-298); SV2 (B178groEL44), SV3 (B178groEL59) and SV6 (B178groEL673): isogenic strains carrying temperature-sensitive alleles of groEL; SV1(=B178) (Georgopoulos, C., Hendrix, R. W., Casjens, S. R. & Kaiser, A. D. (1973) J. Mol. Biol. 76, 45-60), A190 (ΔgroEL::kan^R) [pBAD-EL] (Ivic, A., Olden, D., Wallington, E. J. & Lund, P. A. (1997) Gene 194, 1-8), and TG1 (Gibson, T. J. (1984) Ph.D. thesis, University of Cambridge, U.K). Bacteriophage λb2cI (Zeilstra-Ryalls, J., Fayet, O., Baird, L. & Georgopoulos, C. (1993) J. Bacteriol. 175, 1134-1143) was used according to standard methods (Arber, W., Enquist, L., Hohn, B., Murray, N. E. & Murray, K. (1983) in Lambda II., ed. R. W. Hendrix, J. W. r., F. W. Stahl and R. A. Weisberg (Cold Spring Harbor Laboratory, Cold Spring Harbor, N.Y.), pp. 433-466); plaque formation was assayed at 30° C. T4D0, a derivative of bacteriophage T4 (Zeilstra-Ryalls, J., Fayet, O., Baird, L. & Georgopoulos, C. (1993) J. Bacteriol. 175, 1134-1143), was used according to standard methods (Karam, J. D. (1994) Molecular biology of bacteriophage T4. (American Society for Microbiology, Washington, D.C.)); plaque formation was assayed at 37° C.

Chain of GroES (P0A6F9 whole entry): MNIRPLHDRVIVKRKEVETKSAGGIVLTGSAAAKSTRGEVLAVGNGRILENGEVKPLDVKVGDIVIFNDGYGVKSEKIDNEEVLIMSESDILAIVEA

For `CC(=O)N[C@@H](CSC(=O)[C@]1([C@@H](O)C(C)C)NC(=O)[C@H](C)[C@@H]1O)C(=O)O` [lactacystin], the “proportion of cells with inclusions of mutant huntingtin exon 1” value in assay [1] is listed as “increased the proportion of cells with inclusions”.

Take HDJ-2/HSDJ: a human HSP40 homologue: in the assay on COS-7 cells, the “inclusion formation in COS-7 cells” value is “increased inclusion formation”. Also, the “proportion of cells with inclusions / inclusion formation” value in assay [2] is reported as “did not modify inclusion formation”.

B1: GroEL(191-376): monomeric minichaperone, apical domain of GroEL, residues 191 to 376 (protein, UniProt P0A6F5 191-376, looked up, fragment)
chain: EGMQFDRGYLSPYFINKPETGAVELESPFILLADKKISNIREMLPVLEAVAKAGKPLLIIAEDVEGEALATLVVNTMRGIVKVAAVKAPGFGDRRKAMLQDIATLTGGTVISEEIGMELEKATLEDLGQAKRVVINKDTTTIIDGVGEEAAIQGRVAQIRQQIEEATSDYDREKLQERVAKLAGGV
modifications: apical domain
In the case of B1, the “enhancing the refolding rate of mtMDH” value in assay [3] is recorded as “ineffective in enhancing the refolding rate”. Moreover, the “Binding to GroES” value with GroES is reported as “did not detectably bind”. For the same molecule, the “Effect of over-expression on λ growth / plaque counts” value in the assay on bacteriophage λ is given as “no effect on plaque counts”.

The values are drawn from US20020193564A1, “Oligomeric chaperone proteins” (priority 1999, published 2002).
